Test system: A549 cells
Test: Anchorage-independent growth of A549 cells (polyHema plates, MTS assay)
Format: cell-based, human
Conditions: 200 nM duplex, MTS assay 10 days later
Experimental: FIG. 12 illustrates growth of A549 cells under anchorage-independent conditions, in 24-well plates coated with polyHema to prevent adherence. Cells were transfected with 200 nM duplex, re-seeded the next day into polyHema-coated plates at 500 cells/well. MTS assay performed 10 days later. UT=untransfected. **p<0.01 for comparison of R4 with Scr.

R4: RNAi duplex CAAUGAGUACAACUACCGCTT / TTGUUACUCAUGUUGAUGGCG, SEQ ID NO:30 (CAAUGAGUACAACUACCGCNN; second strand not cited, chemistry not fully specified)
Anchorage-independent growth: significant inhibition of anchorage-independent growth
